Like-named read-outs stand apart in the source and are kept apart here.
Legend:
[1] = L6 cytotoxicity assay; type: cell-based, rat; conditions: rat, mean of duplicate assays
[2] = test system: Trypanosoma brucei rhodesiense; assay: Antiparasitic assay, Trypanosoma brucei rhodesiense; type: cell-based; conditions: for IC50: read-out: T. B. Rhod. IC50
Source text: (§1) The set of compounds were screened against a panel of four parasitic protozoa: Trypanosoma brucei rhodesiense, Trypanosoma cruzi, Leishmania donovani and Plasmodium falciparum K1 dual drug-resistant strain.
(§2) Detailed protocols for these assays have been described elsewhere.

[3] = test system: Leishmania donovani; assay: Antiparasitic assay, Leishmania donovani; type: cell-based; conditions: for IC50: mean of duplicate assays, read-out: L. Don. IC50
Source text: as §1, §2

[4] = test system: Trypanosoma cruzi; assay: Antiparasitic assay, Trypanosoma cruzi; type: cell-based; conditions: for IC50: mean of duplicate assays, read-out: T. Cruzi IC50
Source text: as §1, §2

[5] = test system: Plasmodium falciparum K1 dual drug-resistant strain; assay: Antiparasitic assay, Plasmodium falciparum K1; type: cell-based; conditions: for SI Pf, antiplasmodial selectivity index = L6 IC50/P f. IC50: L6 versus P. falciparum K1
Source text: as §1, §2

[6] = cited from earlier work
[7] = test system: panel of human tumour cell lines (NCI 60 cell-line panel); assay: cells; conditions: for tumour cell mean growth: preliminary single dose (10 μM) testing
Source text: Protocols of testing at the DTP, NCI have been described elsewhere.

[8] = test system: L6 rat skeletal myoblast cell line; assay: L6 cytotoxicity assay; type: cell-based
[9] = test system: Plasmodium falciparum (Pf) D6 clone; set-up: method as in PMID 20337497; conditions: cited from earlier work
[10] = test system: Pf W2 clone; conditions: cited from earlier work
[11] = test system: Vero cell line; set-up: method as in PMID 20337497; conditions: cited from earlier work
[12] = test system: human colon tumour cell line HCT-116; conditions: read-out: HCT-116 IC50 (cytotoxicity); cited from earlier work
[13] = test system: non-malignant human keratinocyte cell line; set-up: method as in PMID 32054048; conditions: read-out: human keratinocyte cell line IC50 (cytotoxicity); cited from earlier work
[14] = Trypanosoma brucei, RHODESIENSE, mean of duplicate assays
[15] = Plasmodium falciparum, K1, read-out: P. Falc. K1 IC50
[16] = Leishmania donovani, read-out: L. Don. % inhibition
[17] = Trypanosoma cruzi, read-out: T. Cruzi % inhibition
[18] = Plasmodium falciparum, K1, read-out: P. Falc. K1 % inhibition
[19] = Trypanosoma brucei, RHODESIENSE

Molecule: Cn1cnc(SC2[C@H]3C(=O)C=C4S[C@H]5C[C@]42C2=C(N5)C(=O)c4[nH]cc5c4C2=[N+]3CC5)c1C[C@H](N)C(=O)O (single isomer, unassigned; (+)) [Compound 12, (+)-discorhabdin H2]
- IC50 [1]: 17000 nM
- IC50 [2, 14]: 2300 nM
- IC50 ([3]; Leishmania donovani): 94000 nM
- IC50 ([4]; Trypanosoma cruzi): 63000 nM
- SI Pf, antiplasmodial selectivity index = L6 IC50/P f. IC50 [5]: 1.4
- IC50 [5, 15]: 12000 nM

Molecule: O=C1C=C2S[C@H]3C[C@]2(C=C1Br)C1=C(N3)C(=O)c2[nH]cc3c2C1=NCC3 [Compound 1, (+)-discorhabdin B]
- inhibition at 1.5 µM ([2]; Trypanosoma brucei, RHODESIENSE, read-out: T. B. Rhod. % inhibition): 99%
- cytotoxicity (in words, Figure 9) [6]: Cytotoxic
- inhibition at 1.5 µM [3, 16]: 57%
- inhibition at 1.5 µM [4, 17]: 100%
- inhibition at 1.5 µM [5, 18]: 100%

Molecule: CCCCCSC1=CC(=O)C(Br)=CC12CCNC1=C2C2=NCCc3c[nH]c(c32)C1=O (stereo not shown) [Compound 4, Thiopentanyl-Discorhabdin C Adduct]
- GI50 ([7]; Homo sapiens, read-out: GI50 (50% growth inhibition)): 1400 nM
- CC50 ([7]; Homo sapiens, read-out: LC50 (50% cell kill)): 10500 nM
- TGI (total growth inhibition) ([7]; averaged calculated mean over panel, two experiments at the NCI): 3900 nM

Molecule: CCCCCNC1[C@@H]2[N+]3=C4C5=C(NCC[C@@]51[C@@H](O)[C@@H](Br)C2(O)O)C(=O)c1[nH]cc(c14)CC3 (stereo partly shown) [Compound 6, Aminopentane Discorhabdin C Dihydrate Adduct]
- IC50 [1]: 810 nM
- tumour cell line cytotoxicity / antitumour activity (in words) ([7]; NCI human tumour cell line panel): inactive
- tumour cell mean growth [7]: 100.67%
- SI Pf, antiplasmodial selectivity index = L6 IC50/P f. IC50 [5]: 3.2
- IC50 [5, 15]: 250 nM

Molecule: O=C1C2=C3C4=[N+](CCc5c[nH]c1c54)C1(O)CCC3(CCN2)CC1 [Compound 7, Discorhabdin C Hydrogenation Product]
- IC50 ([1]; L6 rat skeletal myoblast cells): 1700 nM
- tumour cell mean growth [7]: 99.57%
- SI Pf, antiplasmodial selectivity index = L6 IC50/P f. IC50 [5]: 19
- IC50 ([5]; Plasmodium falciparum, K1, mean of duplicate assays, read-out: P. Falc. K1 IC50): 90 nM

Molecule: O=C1C(Br)=CC2(C=C1Br)CCNC1=C2C2=NCCc3cn(C4C5[N+]6=C7C8=C(NCCC84C(O)C(Br)C5(O)O)C(=O)c4[nH]cc(c47)CC6)c(c32)C1=O (stereo not shown) [Compound 8]
- IC50 [1]: 2100 nM
- activity towards Trypanosoma brucei rhodesiense (in words) [2]: sub-micromolar
- IC50 [2, 14]: 710 nM
- IC50 ([3]; Leishmania donovani): 18700 nM
- IC50 ([4]; Trypanosoma cruzi): 11100 nM
- SI Pf, antiplasmodial selectivity index = L6 IC50/P f. IC50 [5]: 0.3
- IC50 [5, 15]: 6400 nM

Molecule: O=C1C2=C(C3=NCCc4c[nH]c1c43)C1(C=C(Br)C(O)C(Br)=C1)CCN2 (stereo not shown) [Compound 9, 3-dihydrodiscorhabdin C]
- IC50 [8]: 110 nM
- IC50 [9]: 170 nM
- IC50 [10]: 130 nM
- IC50 [11]: 9800 nM
- IC50 ([5]; mean of duplicate assays, read-out: P. Falc. K1 IC50): 400 nM

Molecule: O=C1C2=C3C4=[N+](CCc5c[nH]c1c54)[C@@H]1C(=O)C=C4S[C@@H](C[C@@]43C1O)N2 (stereo partly shown) [Compound 14]
- IC50 [1]: 11000 nM
- IC50 [2, 19]: 1300 nM
- inhibition at 1.9 µM [3, 16]: 20%
- inhibition at 12 µM [4, 17]: 9%
- inhibition at 1.9 µM [5, 18]: 20%

Molecule: CSC1=CC(=O)C(Br)=C[C@]12C=CNC1=C2C2=NCCc3cn(C)c(c32)C1=O [Compound 16]
- IC50 [1]: 6100 nM
- SI Pf, antiplasmodial selectivity index = L6 IC50/P f. IC50 [5]: 3.6
- IC50 [5, 15]: 1700 nM

Molecule: O=C1C2=C(C3=NCCc4c[nH]c1c43)c1c(cc(Br)c(O)c1Br)CCN2 [Compound 17]
- IC50 [1]: 41000 nM
- activity towards Trypanosoma brucei rhodesiense (in words) [2]: sub-micromolar
- IC50 [2, 14]: 330 nM
- inhibition at 0.8 µM ([3]; Leishmania donovani, at 0.8 μM, read-out: L. Don. % inhibition): 29%
- IC50 [12]: 160 nM
- inhibition at 0.8 µM ([4]; Trypanosoma cruzi, at 0.8 μM, read-out: T. Cruzi % inhibition): 0%
- IC50 [13]: 560 nM
- SI Pf, antiplasmodial selectivity index = L6 IC50/P f. IC50 [5]: 510
- IC50 [5, 15]: 80 nM

Molecule: O=C(Cn1ccnc1[N+](=O)[O-])NCc1ccccc1 [benznidazole, reference compound]
- IC50 ([4]; Trypanosoma cruzi): 1350 nM

Molecule: CCN(CC)CCCC(C)Nc1ccnc2cc(Cl)ccc12 (stereo not shown) [chloroquine, reference compound]
- IC50 [5, 15]: 200 nM

Molecule: Nc1nc(N)nc(Nc2ccc([As]3SCC(CO)S3)cc2)n1 (stereo not shown) [melarsoprol, reference compound]
- IC50 [2, 19]: 10 nM

Molecule: CCCCCCCCCCCCCCCCOP(=O)([O-])OCC[N+](C)(C)C [miltefosine, reference compound]
- IC50 ([3]; Leishmania donovani): 520 nM

Molecule: COc1cc([C@@H]2c3cc4c(cc3[C@H](O)[C@H]3COC(=O)[C@H]23)OCO4)cc(OC)c1OC [podophyllotoxin, reference compound]
- IC50 [1]: 10 nM

Molecule: discorhabdin U [Compound 15]
- T. B. Rhod. % inhibition ([2]; at 1.5 μM): 100% (1.5)
- L. Don. % inhibition ([3]; at 1.5 μM): 97% (1.5)
- T. Cruzi % inhibition ([4]; at 1.5 μM): 100% (1.5)
- P. Falc. K1 % inhibition ([5]; at 1.5 μM): 100% (1.5)
